{"source": "patent US9937182B2", "about": "“Therapeutic strategies for the treatment of preeclampsia” (UNIVERSITY OF IOWA RESEARCH FOUNDATION, priority 2013, dated 2018)", "key": {"[1]": {"test_system": "abdominal aorta", "experiment": "Abdominal aortic ring vascular reactivity (organ bath)", "format": "cell-based, mice", "details": "for Emax: Mus musculus, relaxation after PGF2α contraction, read-out: Maximum Response; for Maximum Response: contractile response", "protocol": "Aortic Vascular Reactivity: Abdominal aortic rings were assessed for vascular reactivity as previously described (32). Briefly, mice were euthanized by overdose of pentobarbital (50 mg, i.p.), and the abdominal aorta was quickly removed and placed in Kreb's buffer containing (in mmol/L): 118.3 NaCl, 4.7 KCl, 1.2 MgSO4, 1.2 KH2PO4, 25 NaHCO3, 2.5 CaCl2 and 11 glucose. Vascular rings (4-5 mm in length) were suspended in oxygenated Kreb's buffer (95% O2/5% CO2) in organ baths at 37° C. and connected to a force transducer via steel hooks. Resting tension was adjusted to 0.5 grams over 45 minutes. Contractile responses were tested in response to AVP (10^−10-10^−6 mol/L), phenylephrine (PE, 10^−8-3×10^−5), endothelin-1 (ET-1, 10^−10-10^−7), prostaglandin F2α (PGF2α, 10^−7-10^−4), and angiotensin II (Ang II, 10^−10-10^−7). Following sub-maximal contraction with PGF2α (40-50% of max; 3×10^−6-6×10^−6), relaxation responses to acetylcholine (10^−8-3×10^−5) and sodium nitroprusside (10^−9-10^−5) were determined.\n(§1) Statistics: Data were analyzed by ANOVA with repeated measures as appropriate. Post-hoc analyses were performed using Bonferroni multiple-comparisons procedures. EC50 and maximum response calculations were performed by fitting individual dose-response data sets to a four-parameter logistic function (Hillslope method); y=min+([…])/(1+(x/EC50)^Hillslope). All mRNA fold changes were calculated using the Livak method (54). All analytical comparisons were performed using SigmaStat/SigmaPlot (Systat). All data are presented as mean±sem."}, "[2]": {"test_system": "isolated neurointermediate lobes", "details": "baseline and potassium-stimulated conditions; cited from earlier work"}, "[3]": {"test_system": "sRA mice and littermate controls", "experiment": "Plasma vasopressin (ELISA) after BH4 treatment", "format": "in vivo", "details": "BH4 10 mg/kg/day i.p., three days", "protocol": "Methods: Double-transgenic sRA mice and littermate controls were placed into single-mouse metabolic cages (Nalgene), and maintained on a 12:12 light:dark cycle at 22° C. with ad libitum access to standard chow (Teklad 7013) and water. Mice were injected once daily (i.p.) with BH4 to achieve 10 mg/kg/day. On the fourth day, mice were sacrificed by CO2 asphyxiation and trunk blood was collected into lithium heparin-coated tubes and placed on ice between 11:30 AM and 1:00 PM (5.5 to 7 hours into the light phase of the standard light cycle). Blood was then centrifuged at 2,000×g for 20 minutes. Plasma was collected and stored at −80° C. until analysis. Plasma samples were analyzed for vasopressin using a commercially-available ELISA kit (Cayman, catalog #583951), according to the manufacturer's instructions. Results falling outside the range of the standard curve (>3,000 pg/mL or <23.4 pg/mL) were set to the maximum or minimum (3,000 or 23.4 pg/mL), respectively, for statistical comparisons. Data were analyzed by three-way ANOVA followed by Tukey all-pairwise multiple comparison procedures."}, "[4]": {"test_system": "rats", "details": "euhydrated vs dehydrated; cited from earlier work"}, "[5]": {"test_system": "sRA mice", "experiment": "Tail-cuff systolic blood pressure during chronic subcutaneous antagonist infusion", "format": "in vivo", "details": "22 ng/h sc, 10 days chronic infusion"}, "[6]": {"test_system": "sRA mice", "experiment": "Radiotelemetric blood pressure, heart rate and physical activity during antagonist infusion", "format": "in vivo", "protocol": "Blood pressure (telemetry). Radiotelemetric blood pressures were recorded from the carotid artery essentially as previously reported (29). Briefly, a telemeter probe (DSI, model TA11PA-C10) was inserted into the common carotid artery under ketamine-xylazine anesthesia. After >2 days of recovery, blood pressure, heart rate, and spontaneous physical activity were recorded for 30 s every 5 min using the Dataquest program (DSI). After baseline recordings, mice were chronically delivered conivaptan and tolvaptan via osmotic minipump that was implanted through an interscapular incision into the subcutaneous space of the back under isoflurane anesthesia."}, "[7]": {"test_system": "2°-branch mesenteric artery", "experiment": "Mesenteric artery vascular reactivity (pressurized myography)", "format": "cell-based, mice", "details": "for Emax: Mus musculus, read-out: Maximum Response", "protocol": "Mesenteric Artery Vascular Reactivity: Secondary branches of mesenteric artery were dissected and placed in chilled oxygenated (21% O2, 5% CO2, and 74% N2) Kreb's buffer. A segment (˜1 mm long) of artery was transferred to a vessel chamber (DMT), cannulated with glass micropipettes and secured with silk ligatures. The artery was slowly pressurized to 40 mmHg without flow. After 30 min equilibration, vessel viability was tested by constriction response to 100 mM KCl. Vascular responses to PE (10-9-10-5 mol/L), AVP (10-12-10-7 mol/L), and ET-1 (10-11-10-8 mol/L) were then assessed. The artery was then superfused with calcium-free Krebs buffer containing 10-5 mol/L sodium nitroprusside and 2 mmol/L EGTA to maximally dilate the vessel. Internal and external diameters were measured at 75 mm Hg. Wall thickness, media/lumen ratio and cross sectional area (CSA) were calculated as previously described by Neves, et al. (62).\nas §1"}, "[8]": {"test_system": "patients with heart failure", "details": "with traditional diuretics; cited from earlier work"}, "[9]": {"test_system": "polycystic kidney disease", "details": "average dose 95 mg per day over 3 years, cited from earlier work"}, "[10]": {"test_system": "sRA and control littermate mice", "experiment": "Blood chemistry following tolvaptan infusion (iSTAT CHEM8+)", "format": "in vivo", "details": "for Crenfinine: lower detection limit 0.20 mg/dl", "protocol": "Blood pressure (tail-cuff). Here we first examined blood pressure in sRA mice using a Visitech Systems BP-2000 tail-cuff blood pressure monitoring system, as previously described (84). Briefly, animals were acclimated to warmed restraint boxes daily for 1 wk. Once acclimated, 30 measurements of systolic blood pressure were averaged from each animal daily for 2 wk to assess baseline blood pressure. Conivaptan (Vaprisol, YM 087, 22 ng/h sc, Baxter Healthcare) or tolvaptan (OPC-41061, 22 ng/h sc, Sigma Aldrich) was delivered to distinct subsets of mice by osmotic minipump (model 1004, Alzet). After osmotic minipump implantation, pressures were recorded daily for 10 days to assess drug effects.\nBlood and urine analyses: Plasma was obtained by collecting whole blood by submandibular bleed into lithium heparin coated tubes, then centrifuged at 5,000×g for 5 minutes, and the supernatant transferred to a fresh tube and frozen at −80° C. until analysis. Urine was collected using Nalgene single-mouse metabolism cages as previously described (29). Copeptin was measured using an ELISA kit (USCN Life Sciences), according to the manufacturer's instructions. Blood chemistries and urine creatinine were determined using a handheld iSTAT clinical chemistry analyzer (Abbott), with CHEM8+ cartridges. Urine protein was determined using a bicinchoninic acid assay kit (Thermo Fisher/Pierce), according to the manufacturer's instructions."}, "[11]": {"test_system": "DOCA-salt hypertension", "details": "rats, intracerebroventricular (ICV) infusion; cited from earlier work"}, "[12]": {"details": "exemplar female sRA mouse, conivaptan 22 ng/h sc, 18 days"}, "[13]": {"details": "males, Control mice, tolvaptan 22 ng/h, 10 days sc"}}, "note": "“Also recorded” adds a separate entry of the source. Read-outs that look alike come from different tables or passages of the source.", "data": [{"smiles": "CC(=O)OCC[N+](C)(C)C", "note": "[Acetylcholine]", "values": [{"measurement": "Emax", "setting": "[1]; male Control mice", "result": "78.9 ± 3.3", "unit": "%"}, {"measurement": "Emax", "setting": "[1]; male sRA mice", "result": "70.4 ± 8.9", "unit": "%"}]}, {"smiles": "CC[C@H](C)[C@H](NC(=O)[C@H](Cc1ccc(O)cc1)NC(=O)[C@@H](NC(=O)[C@H](CCCNC(=N)N)NC(=O)[C@@H](N)CC(=O)O)C(C)C)C(=O)N[C@@H](Cc1c[nH]cn1)C(=O)N1CCC[C@H]1C(=O)N[C@@H](Cc1ccccc1)C(=O)O", "note": "[Angiotensin II]", "values": [{"measurement": "Maximum Response", "setting": "[1]; male Control mice", "result": "0.32 ± 0.03", "unit": "g"}, {"measurement": "Maximum Response", "setting": "[1]; male sRA mice", "result": "0.38 ± 0.03", "unit": "g"}]}, {"smiles": "C[C@H](O)[C@H](O)[C@H]1CNc2[nH]c(N)nc(=O)c2N1", "note": "[BH4, (6R)-2-Amino-6-[(1R,2S)-1,2-dihydroxypropyl]-5,6,7,8-tetrahydropteridin-4(1H)-one]", "values": [{"measurement": "vasopressin content", "setting": "[2]", "result": "reduces vasopressin content"}, {"measurement": "steady-state plasma AVP levels", "setting": "[3]; control littermate mice", "result": "no effect on steady-state AVP levels; also recorded: unchanged"}, {"measurement": "steady-state plasma AVP levels", "setting": "[3]; sRA mice", "result": "significant (P=0.017) reduction; also recorded: significantly (*P=0.017) reduced"}, {"measurement": "neurohypophysial vasopressin", "setting": "[4]", "result": "reduces neurohypophysial vasopressin under euhydrated but not dehydrated conditions"}]}, {"smiles": "Cc1nc2c([nH]1)-c1ccccc1N(C(=O)c1ccc(NC(=O)c3ccccc3-c3ccccc3)cc1)CC2", "note": "[Conivaptan, N-(4-((4,5-dihydro-2-methylimidazo[4,5-d][1]benzazepin-6(1H)-yl)carbonyl)phenyl)-(1,1′-biphenyl)-2-carboxamide]", "values": [{"measurement": "systolic blood pressure (tail-cuff)", "setting": "[5]", "result": "complete normalization of the hypertension"}, {"measurement": "blood pressure (telemetry, MAP)", "setting": "[6]; [12]", "result": "gradual but substantial reduction in blood pressure"}, {"measurement": "heart rate (telemetry)", "setting": "[6]; [12]", "result": "slight reduction in heart rate"}, {"measurement": "spontaneous physical activity", "setting": "[6]; [12]", "result": "remained normal"}]}, {"smiles": "CC[C@H](C)[C@H](NC(=O)[C@H](CC(=O)O)NC(=O)[C@H](CC(C)C)NC(=O)[C@H](Cc1c[nH]cn1)NC(=O)[C@@H]1CSSC[C@H](N)C(=O)N[C@@H](CO)C(=O)N[C@H]2CSSC[C@H](NC(=O)[C@H](CCC(=O)O)NC(=O)[C@H](CCCCN)NC(=O)[C@H](CC(=O)O)NC(=O)[C@H](CCSC)NC(=O)[C@H](CC(C)C)NC(=O)[C@H](CO)NC(=O)[C@H](CO)NC2=O)C(=O)N[C@@H](C(C)C)C(=O)N[C@@H](Cc2ccc(O)cc2)C(=O)N[C@@H](Cc2ccccc2)C(=O)N1)C(=O)N[C@H](C(=O)N[C@@H](Cc1c[nH]c2ccccc12)C(=O)O)[C@@H](C)CC", "note": "[Endothelin-1]", "values": [{"measurement": "Maximum Response", "setting": "[1]; male Control mice", "result": "0.45 ± 0.04", "unit": "g"}, {"measurement": "Maximum Response", "setting": "[1]; male sRA mice", "result": "0.55 ± 0.09", "unit": "g"}, {"measurement": "Maximum Response", "setting": "[7]; male Control mice", "result": "67.8 ± 4.3", "unit": "%"}, {"measurement": "Maximum Response", "setting": "[7]; male sRA mice", "result": "58.0 ± 4.6", "unit": "%"}]}, {"smiles": "CNC[C@H](O)c1cccc(O)c1", "note": "[Phenylephrine]", "values": [{"measurement": "Emax", "setting": "[7]; male Control mice", "result": "67.3 ± 3", "unit": "%"}, {"measurement": "Emax", "setting": "[7]; male sRA mice", "result": "64.5 ± 4.1", "unit": "%"}]}, {"smiles": "CCCCC[C@H](O)/C=C/[C@@H]1[C@@H](C/C=C\\CCCC(=O)O)[C@@H](O)C[C@H]1O", "note": "[Prostaglandin F2α]", "values": [{"measurement": "Maximum Response", "setting": "[1]; male Control mice", "result": "1.59 ± 0.06", "unit": "g"}, {"measurement": "Maximum Response", "setting": "[1]; male sRA mice", "result": "1.50 ± 0.10", "unit": "g"}]}, {"smiles": "Cc1ccccc1C(=O)Nc1ccc(C(=O)N2CCC[C@@H](O)c3cc(Cl)ccc32)c(C)c1", "note": "[Tolvaptan, N-(4-[[(5R)-7-chloro-5-hydroxy-2,3,4,5-tetrahydro-1H-1-benzazepin-1-yl]carbonyl]-3-methylphenyl)-2-methylbenzamide]", "values": [{"measurement": "systolic blood pressure (tail-cuff)", "setting": "[5]", "result": "nearly identical normalization of blood pressure"}, {"measurement": "excretion of excess fluids and blood sodium levels", "setting": "[8]", "result": "increase excretion of excess fluids and improve blood sodium levels"}, {"measurement": "side effects", "setting": "[8]", "result": "without producing side effects such as hypotension (low blood pressure) or hypokalemia"}, {"measurement": "reduction of the decline in kidney function compared with placebo", "setting": "[9]", "result": "approximately 30%"}, {"measurement": "slowing of the usual increase in kidney volume compared to placebo", "setting": "[9]", "result": 50, "unit": "%"}, {"measurement": "increase in kidney volume", "setting": "[9]; placebo 5.51, p<0.001", "result": 2.80, "unit": "% per year"}, {"measurement": "reciprocal serum creatinine", "setting": "[9]; placebo −3.81, p<0.001", "result": "−2.61 (mg/mL)-1 per year"}, {"measurement": "blood pressure (radiotelemetry, MAP)", "setting": "[6]; cohort of sRA mice (n=4 female), tolvaptan sc infusion 10 days", "result": "blood pressure reduction was confirmed"}, {"measurement": "hyponatremia and hypocalcemia of sRA mice", "setting": "[10]; chronic tolvaptan delivery, genotype X drug interaction P<0.05 for both", "result": "corrected both of these imbalances"}, {"measurement": "Crenfinine", "setting": "[10]; females, Control mice, tolvaptan 22 ng/h, 10 days sc", "result": "0.24 ± 0.02", "unit": "mg/dL"}, {"measurement": "Crenfinine", "setting": "[10]; females, sRA mice, tolvaptan 22 ng/h, 10 days sc", "result": "0.33 ± 0.04", "unit": "mg/dL"}, {"measurement": "Sodium", "setting": "[10]; [13]", "result": 148, "unit": "mM"}, {"measurement": "Crenfinine", "setting": "[10]; [13]", "result": "0.25 ± 0.03", "unit": "mg/dL"}, {"measurement": "Crenfinine", "setting": "[10]; males, sRA mice, tolvaptan 22 ng/h, 10 days sc", "result": "0.30 ± 0.04", "unit": "mg/dL"}]}, {"smiles": "C[C@H](CS)C(=O)N1CCC[C@H]1C(=O)O", "note": "[captopril]", "values": [{"measurement": "DOCA-salt hypertension", "setting": "[11]", "result": "both prevented and reversed DOCA-salt hypertension"}]}]}
